This test has as its target T1, ferroportin (Fpn) (Mus musculus, UniProt Q9JHI9).
T1 construct: endogenous in cells; host or cells: J774 mouse macrophage cell line, induced with Fe(III)NTA
T1 sequence (Q9JHI9 1-570): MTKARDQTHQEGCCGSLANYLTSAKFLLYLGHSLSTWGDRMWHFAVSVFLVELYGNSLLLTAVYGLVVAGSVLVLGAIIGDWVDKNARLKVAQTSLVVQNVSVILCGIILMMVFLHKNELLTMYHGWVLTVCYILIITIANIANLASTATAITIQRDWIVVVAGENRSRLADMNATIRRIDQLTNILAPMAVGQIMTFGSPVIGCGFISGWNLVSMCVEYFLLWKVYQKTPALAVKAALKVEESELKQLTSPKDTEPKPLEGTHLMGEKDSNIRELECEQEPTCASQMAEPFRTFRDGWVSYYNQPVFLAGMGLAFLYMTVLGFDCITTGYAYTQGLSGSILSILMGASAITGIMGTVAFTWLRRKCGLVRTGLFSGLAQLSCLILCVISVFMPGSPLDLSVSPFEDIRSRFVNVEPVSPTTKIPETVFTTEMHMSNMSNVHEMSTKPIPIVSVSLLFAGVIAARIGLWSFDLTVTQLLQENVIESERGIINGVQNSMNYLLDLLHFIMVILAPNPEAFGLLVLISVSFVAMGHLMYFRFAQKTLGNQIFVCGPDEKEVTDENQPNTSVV
In words: Hepcidin Internalization Assay (J774). The class given is cell-based. Conditions: J774 cells, 25 nM TMR-hepcidin, 2 hours; average of multiple measurements; read-out: Average (AVE) IC50 of Fpn inhibitors in the hepcidin internalization assay. From the text: This cellular assay allows quantification of the binding of hepcidin to ferroportin (Fpn) through microscopic detection of internalization of a fluorescently labeled hepcidin into J774 cells. […] Binding of hepcidin to Fpn triggers internalization and degradation of both hepcidin and Fpn. […] Therefore, microscopic detection of cell-associated TMR fluorescence is a measure of hepcidin binding to Fpn and internalization of hepcidin and Fpn. If TMR-hepcidin is prevented from binding to Fpn, cellular TMR fluorescence remains low (Durrenberger et al, 2013). The effect of small molecular weight Fpn inhibitor compounds in this assay was evaluated in vitro as described below. […] Cat. 655090) and grown at 37° C. with 5% CO2. After overnight incubation, cells were washed 3 times with pre-warmed DMEM w/o phenol red, 30 μl/well of DMEM w/o phenol red was added after the final wash and 10 μl/well of dilution series of test compounds were added in triplicates. […] Cells were incubated in a total volume of 50 μl at 37° C. with 5% CO2 for 2 hours, then Hoechst 33342 dye was added to a final concentration of 0.5 μg/ml to stain nuclei and further incubated for 10 min. at 37° C. with 5% CO2. […] After removal of the paraformaldehyde solution, cells were washed 3 times with PBS leaving 100 μl per well and the plates were sealed with foil plate seal. […] The acquired image data was analysed with the […] analysis software. […] IC50 values were calculated with the Sum(Mean) raw data using “log(inhibitor) vs. response” curve fitting of Prism 5 software (GraphPad Software Inc., version 5.02). For each data set the fit of the “log(inhibitor) vs. response (three parameters)” model was compared to the fit of the “log(inhibitor) vs. response-Variable slope (four parameters)” model and the IC50 data of the preferred model was used.

By IC50 is commonly meant the concentration that gives 50% inhibition.

Where a name gives a salt, the structure may show the parent alone.

Regarding `CN(C)CCn1c(CCNCCc2nc3c(NCc4ncccc4F)nccc3o2)nc2ccccc21` [Example Compound No. 20, 2-(2-((2-(1-(2-(dimethylamino)ethyl)-1H-benzo[d]imidazol-2-yl)ethyl)amino)ethyl)-N-((3-fluoropyridin-2-yl)methyl)oxazolo[4,5-c]pyridin-4-amine], the IC50 turned out to be 20000 nM. For the compound `CCn1c(CCNCCc2nc3c(NCc4ncccc4F)nccc3o2)nc2cc3c(cc21)OCCO3` [Example Compound No. 21, 2-(2-((2-(1-ethyl-6,7-dihydro-1H-[1,4]dioxino[2′,3′:4,5]benzo[1,2-d]imidazol-2-yl)ethyl)amino)ethyl)-N-((3-fluoropyridin-2-yl)methyl)oxazolo[4,5-c]pyridin-4-amine formate], the IC50 was determined as 31 nM. Take `Cn1c(CCNCCc2nc3c(NCc4ncccc4F)nccc3o2)nc2ccccc21` [Example Compound No. 22, N-((3-fluoropyridin-2-yl)methyl)-2-(2-((2-(1-methyl-1H-benzo[d]imidazol-2-yl)ethyl)amino)ethyl)oxazolo[4,5-c]pyridin-4-amine formate]: the IC50 was 40 nM.

On to `Fc1cccnc1CNc1nccc2oc(CCNCCc3nc4cc5c(cc4n3-c3ccccc3)OCCO5)nc12` [Example Compound No. 23, N-((3-fluoropyridin-2-yl)methyl)-2-(2-((2-(1-phenyl-6,7-dihydro-1H-[1,4]dioxino[2′,3′:4,5]benzo[1,2-d]imidazol-2-yl)ethyl)amino)ethyl)oxazolo[4,5-c]pyridin-4-amine formate], for which the IC50 turned out to be 18 nM.

Values taken from patent publication US20260146046A1, “BICYCLIC FERROPORTIN INHIBITORS” (Vifor (International) AG, priority 2022, published 2026).
